Earlier results in patent publication US20240148640A1, “TOPICAL OXYBUTYNIN FOR HOT FLASHES” (CELISTA PHARMACEUTICALS LLC, priority 2022, published 2024).

**Q.** Which “reduction of hot flashes” value (given orally (Leon-Ferre et al., 2020)) does the source give for `CCN(CC)CC#CCOC(=O)C(O)(c1ccccc1)C1CCCCC1` (centres unmarked) [oxybutynin] here?
**A.** 75%

**Q.** What about the “frequency and intensity of hot flashes” value (women with frequent hot flashes, incl. breast cancer survivors on tamoxifen or aromatase inhibitors (Kligman et al., 2010)) of the same compound?
**A.** reduced the frequency and intensity of hot flashes
